In assay [1] the target is T1, MRGPRX2 (Homo sapiens, UniProt Q96LB1).
T1 sequence (Q96LB1 1-330): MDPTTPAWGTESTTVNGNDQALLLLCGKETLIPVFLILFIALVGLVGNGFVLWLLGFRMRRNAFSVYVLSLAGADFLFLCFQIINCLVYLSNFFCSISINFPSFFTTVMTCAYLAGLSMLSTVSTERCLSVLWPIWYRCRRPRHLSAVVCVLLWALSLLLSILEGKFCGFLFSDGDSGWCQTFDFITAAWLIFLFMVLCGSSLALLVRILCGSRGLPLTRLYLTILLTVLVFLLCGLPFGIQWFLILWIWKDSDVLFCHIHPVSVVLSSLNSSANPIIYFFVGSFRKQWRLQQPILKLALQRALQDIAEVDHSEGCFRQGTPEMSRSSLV
Kind of assay: MRGPRX2 IP1 HTRF assay. The assay is classed as cell-based. The arrangement: host or cells: CHO-K1. To be noted: CHO-K1 cells stably expressing human MRGPRX2; agonist Cortistatin 14 1 μM; IP1 accumulation. How it is done:
This assay measures compound inhibition of myo-Inositol 1 phosphate (IP1) accumulation in CHO-K1 cells. Chinese hamster ovary (CHO-K1) cells stably expressing human MRGPRX2 were purchased from GenScript (Piscataway, NJ).
For the HTRF IP1 determination, an IP-One GqKit (Perkin Elmer Cisbio, Waltham, MA), which includes all reagents and buffers in this protocol, was used. The cells were maintained in culture medium (Ham's F-12K) containing 10% (v/v) FBS, and 200 μg/mL Zeocin. For the assay, the cells were harvested and resuspended in culture medium with 2% FBS and without Zeocin, then were passed through a 40 μm filter. Cells were added at 20000 cells in a 5 μL/well to a 384-well white small volume cell culture plate (Greiner VWR, Radnor, PA) which contained 50 nL/well of test compound serially diluted at a selected concentration range in DMSO. 5 μL/well of prepared 2× Stimulation Buffer2 was then added to plates and was incubated at 37° C. with 5% CO2 for 1 h. 5 μL/well of agonist Cortistatin 14 (Bio-TechneR&D Systems, Minneapolis, MN) in 1×Stimulation Buffer 2, for a 1 μM final concentration, was then added to plates and incubated at 37° C. with 5% CO2 for 1 h. 6 μL/well of 1:20 diluted Detection Reagent Mix (d2 and Cryptate) was added to the plates and incubated for 1 h in the dark. Plates were read on the PHERAstar microplate reader (BMG Labtech Cary, NC) to determine the HTRF ratio of the acceptor and donor emission signals. The IP1 concentrations were calculated from a standard curve following the IP-One GQ kit instructions. Wells with DMSO only and wells with high concentration of reference antagonist were used as controls for normalization. Compound IC50 curves were globally fitted with 3- or 4-parameter Hill equation in a Genedata Screener (Genedata Basel, Switzerland).

In assay [2] the target is T1, MRGPRX2. Kind of assay: MRGPRX2 FLIPR calcium mobilization assay. The assay is classed as cell-based. More on the design: host or cells: CHO-K1. The conditions noted are these: CHO-K1 cells stably expressing human MRGPRX2; agonist Cortistatin-14 at EC80; Ca2+ release. How it is done:
Chinese hamster ovary (CHO-K1) cells stably expressing human MRGPRX2 were purchased from Genescript (Piscataway, NJ). The cells were maintained in culture medium (Ham's F-12K) containing 10% (v/v) FBS, 200 μg/mL Zeocin, 100 units/mL penicillin G and 100 μg/mL streptomycin (Life Technologies, Carlsbad, CA). For the assay, the cells were harvested and resuspended with culture medium without Zeocin before plating at 8000 cells per well in 20 μL in 384-well black clear bottom cell culture plates (VWR, Radnor, PA). After 24 h culture at 37° C. and 5% CO2, the cells were loaded with 20 μL/well of calcium dye (FLIPR Calcium 6 Assay Kit, Molecular Devices, San Jose, CA) diluted in loading buffer (1× Hank's Balanced Salt Solution (HBSS), 5 mM probenecid, 20 mM 4-(2-hydroxyethyl)-1-piperazineethanesulfonic acid (HEPES), pH 7.4, VWR, Radnor, PA) followed with 45 min. incubation at 37° C. and 40 min. at r.t. in the dark. Cells were then treated with the addition of 10 uL/well test compounds with a range of increasing concentrations diluted in the assay buffer (1×HBSS, 20 mM HEPES, pH 7.4, VWR, Radnor, PA) with FLIPR Penta (Molecular Devices. San Jose, CA) and incubated for 30 min. at r.t. Ca^2+ release was measured with FLIPR Penta with 10 s basal fluorescence measurement, then 12.5 μL of 5× agonist Cortistatin-14 (Tocris, Minneapolis, MN) at final concentration corresponding to the EC80 were added followed with continued fluorescence signal monitoring for an additional 110 s. The base line adjusted (median of first 10s base line) max value of the Relative Fluorescence Unit (RFU) was plotted against compound concentrations. Wells with no compound were served as the positive controls, and wells with high concentration of reference antagonist were used as negative controls. IC50 curves were globally fitted with 3- or 4-parameter Hill equation in a Genedata Screener (Genedata Basel, Switzerland).

Regarding `Cn1cnc2ccnc(N[C@@H]3CCC[C@H](Nc4cccc5nc(C(F)(F)F)cn45)C3)c21` [Example 1, (1R,3S)—N^1-(3-Methyl-3H-imidazo[4,5-c]pyridin-4-yl)-N^3-(2-(trifluoromethyl)imidazo[1,2-a]pyridin-5-yl)cyclohexane-1,3-diamine], the IC50 in assay [1] and in assay [2] was 100 to 1000 nM each time.

Take `Cn1cnc2ccnc(N[C@H]3CC[C@@H](Nc4cccc5nc(C(F)(F)F)cn45)CC3)c21` [Example 2, (1s,4s)-N^1-(3-Methyl-3H-imidazo[4,5-c]pyridin-4-yl)-N^4-(2-(trifluoromethyl)imidazo[1,2-a]pyridin-5-yl)cyclohexane-1,4-diamine]: the IC50 in assay [1] was 100 to 1000 nM; in assay [2], 0.1 to 100 nM.

For `FC(F)(F)c1cn2c(N[C@H]3CCC[C@@H](Nc4nccn5cncc45)C3)cccc2n1` [Example 4, (1R,3S)—N^1-(Imidazo[1,5-a]pyrazin-8-yl)-N^3-(2-(trifluoromethyl)imidazo[1,2-a]pyridin-5-yl)cyclohexane-1,3-diamine], the IC50 lay within 100 to 1000 nM in assay [1] and 0.1 to 100 nM in assay [2].

Regarding `Cc1cc2nc(C(F)(F)F)cc(N[C@H]3CCC[C@@H](Nc4nccc5ncn(C)c45)C3)n2n1` [Example 6, (1R,3S)—N^1-(3-Methyl-3H-imidazo[4,5-c]pyridin-4-yl)-N^3-(2-methyl-5-(trifluoromethyl)pyrazolo[1,5-a]pyrimidin-7-yl)cyclohexane-1,3-diamine], in assay [2], the concentration for half-maximal inhibition (IC50) fell in the range of 100 to 1000 nM.

For `Cc1cc2nc(C(F)(F)F)cc(N[C@H]3CCC[C@@H](Nc4nccc5ncccc45)C3)n2n1` [Example 7, (1S,3R)—N^1-(2-Methyl-5-(trifluoromethyl)pyrazolo[1,5-a]pyrimidin-7-yl)-N^3-(1,6-naphthyridin-5-yl)cyclohexane-1,3-diamine], the IC50 in assay [1] is 100 to 1000 nM; in assay [2] it was 0.1 to 100 nM.

Turning to `FC(F)(F)c1cc(N[C@H]2CCC[C@@H](Nc3nccn4nccc34)C2)n2nc(Br)cc2n1` [Example 8, (1S,3R)—N^1-(2-Bromo-5-(trifluoromethyl)pyrazolo[1,5-a]pyrimidin-7-yl)-N^3-(pyrazolo[1,5-a]pyrazin-4-yl)cyclohexane-1,3-diamine], the IC50 was 100 to 1000 nM in assay [1] and 0.1 to 100 nM in assay [2].

For `FC(F)(F)c1cc(N[C@H]2CCC[C@@H](Nc3nccc4ncccc34)C2)n2nc(Br)cc2n1` [Example 9, (1S,3R)—N^1-(2-Bromo-5-(trifluoromethyl)pyrazolo[1,5-a]pyrimidin-7-yl)-N^3-(1,6-naphthyridin-5-yl)cyclohexane-1,3-diamine], the IC50 in assay [1] and in assay [2] was 0.1 to 100 nM throughout.

As to `FC(F)(F)c1cc(N[C@H]2CCC[C@@H](Nc3nnc4ccccn34)C2)n2nc(Br)cc2n1` [Example 10, (1R,3S)—N^1—([1,2,4]Triazolo[4,3-a]pyridin-3-yl)-N^3-(2-bromo-5-(trifluoromethyl)pyrazolo[1,5-a]pyrimidin-7-yl)cyclohexane-1,3-diamine], the IC50 is 100 to 1000 nM in assay [1] and 0.1 to 100 nM in assay [2].

Consider `FC(F)(F)c1cc(N[C@H]2CCC[C@@H](Nc3nccc4ncccc34)C2)n2nc(C(F)(F)F)cc2n1` [Example 11, (1S,3R)—N^1-(2,5-Bis(trifluoromethyl)pyrazolo[1,5-a]pyrimidin-7-yl)-N^3-(1,6-naphthyridin-5-yl)cyclohexane-1,3-diamine], for which the IC50 in assay [1] and in assay [2] was 0.1 to 100 nM throughout.

As for `FC(F)(F)c1cc(N[C@H]2CCC[C@@H](Nc3nccn4cncc34)C2)n2nc(Br)cc2n1` [Example 12, (1S,3R)—N^1-(2-Bromo-5-(trifluoromethyl)pyrazolo[1,5-a]pyrimidin-7-yl)-N^3-(imidazo[1,5-a]pyrazin-8-yl)cyclohexane-1,3-diamine], the IC50 in assay [1] was 100 to 1000 nM; in assay [2] it was 0.1 to 100 nM.

Regarding `Cn1cnc2ccnc(N[C@@H]3CCC[C@H](Nc4cc(C(F)(F)F)nc5cc(Br)nn45)C3)c21` [Example 13, (1S,3R)—N^1-(2-Bromo-5-(trifluoromethyl)pyrazolo[1,5-a]pyrimidin-7-yl)-N^3-(3-methyl-3H-imidazo[4,5-c]pyridin-4-yl)cyclohexane-1,3-diamine], the IC50 was in the range of 100 to 1000 nM in assay [1] and 0.1 to 100 nM in assay [2].

Regarding `FC(F)(F)c1cc(N[C@H]2CCC[C@@H](Nc3nccn4cncc34)C2)n2nc(C(F)(F)F)cc2n1` [Example 14, (1S,3R)—N^1-(2,5-Bis(trifluoromethyl)pyrazolo[1,5-a]pyrimidin-7-yl)-N^3-(imidazo[1,5-a]pyrazin-8-yl)cyclohexane-1,3-diamine], the IC50 in assay [1] fell in the range of 100 to 1000 nM; in assay [2] it was 0.1 to 100 nM.

`Cn1cnc2ccnc(N[C@@H]3CCC[C@H](Nc4cc(C(F)(F)F)nc5cc(C(F)(F)F)nn45)C3)c21` [Example 15, (1S,3R)—N^1-(2,5-Bis(trifluoromethyl)pyrazolo[1,5-a]pyrimidin-7-yl)-N^3-(3-methyl-3H-imidazo[4,5-c]pyridin-4-yl)cyclohexane-1,3-diamine]: the IC50 was in the range of 100 to 1000 nM in assay [1] and 0.1 to 100 nM in assay [2].

As for `FC(F)(F)c1cc(N[C@H]2CCC[C@@H](Nc3nccc4nccn34)C2)n2nc(Br)cc2n1` [Example 16, (1S,3R)—N^1-(2-Bromo-5-(trifluoromethyl)pyrazolo[1,5-a]pyrimidin-7-yl)-N^3-(imidazo[1,2-c]pyrimidin-5-yl)cyclohexane-1,3-diamine], the figures for the IC50 in assay [1] and in assay [2] were 100 to 1000 nM and 0.1 to 100 nM, respectively.

For the molecule `FC(F)(F)c1cc(N[C@H]2CCC[C@@H](Nc3nccc4nccn34)C2)n2nc(C(F)(F)F)cc2n1` [Example 17, (1S,3R)—N^1-(2,5-Bis(trifluoromethyl)pyrazolo[1,5-a]pyrimidin-7-yl)-N^3-(imidazo[1,2-c]pyrimidin-5-yl)cyclohexane-1,3-diamine], the 50% inhibitory concentration (IC50) in assay [1] and in assay [2] was 0.1 to 100 nM each time.

In the case of `FC(F)(F)c1cc(N[C@H]2CCC[C@@H](Nc3nnc4ccccn34)C2)n2nc(C(F)(F)F)cc2n1` [Example 18, (1R,3S)—N^1—([1,2,4]Triazolo[4,3-a]pyridin-3-yl)-N^3-(2,5-bis(trifluoromethyl)pyrazolo[1,5-a]pyrimidin-7-yl)cyclohexane-1,3-diamine], the IC50 is 100 to 1000 nM in assay [1] and 0.1 to 100 nM in assay [2].

These data come from patent US20250154174A1, “BICYCLIC HETEROCYCLES AS MRGPRX2 ANTAGONISTS” (Incyte Corporation, priority 2023, published 2025).
